Results taken from patent publication US8710045B2, “Agents for preventing and treating disorders involving modulation of the ryanodine receptors” (The Trustees of Columbia University in the City of New York, priority 2004, dated 2014).
Where “and” joins values, the source holds several entries; their conditions need not be identical. Equal values may be shown once. One block for each compound: values may come before it.

How the values were obtained:
PKA-phosphorylated RyR2 = biological target: T1, PKA-phosphorylated RyR2 (Homo sapiens, UniProt Q92736); assay: FKBP12.6 rebinding assay: FKBP12.6 binding to PKA-phosphorylated RyR2 in cardiac SR; details: compound 0.5-1000 nM; Michaelis-Menten curve fitting
T1 construct: from tissue
Description: Samples are centrifuged at 95,000 g for 10 min and the pellets are washed three times in 0.2 ml imidazole buffer. The final pellets are pooled and resuspended in imidazole buffer (final concentration≈10 μg/μl). […] Samples then are centrifuged at 100,000 g for 10 minutes and pellets washed 3 times with imidizol buffer. […] Immunoblots are developed using an anti-FKBP antibody (1:3,000 dilution). […] The intracellular solution contains (in mM): CsCl, 60; CaCl2, 1; EGTA, 11; MgCl2, 1; K2ATP, 5; HEPES, 10; aspartic acid, 50; pH 7.4 (CsOH). Under these conditions, it is expected that the measured current was carried by Ba^2+ primarily through L-type calcium channels which is referred to as ICa,L. Drugs are applied by a local solution changer and reach the cell membrane within 1 s.
The FKBP12.6 rebinding assay described above is used to determine the amount of FKBP12.6 binding to PKA-phosphorylated RyR2 at various concentrations (0.5-1000 nM) of the compounds shown. EC50 values are calculated using Michaelis-Menten curve fitting.
The EC50 values are calculated using Michaelis-Menten curve fitting.

hERG current = hERG current (Homo sapiens, UniProt Q12809); assay: hERG current, PatchXpress 7000A automatic parallel patch clamp in hERG-transfected HEK 293 cells (Example 6); details: for Individual Data (% Inhibition): single cell; for hERG current inhibition at the highest concentration tested: highest concentration tested (10 μM)
Description: (§1) HEK293 cells were transfected with a plasmid containing the hERG cDNA and a neomycin resistance gene. Stable transfectants were selected by culturing the cells in the presence of G418. The selection pressure was maintained by continued culture in the presence of G418. […] Cells for use in electrophysiology were cultured in 35 mm dishes.
(§2) Onset and steady state block of hERG current was measured using a pulse pattern with fixed amplitudes (conditioning prepulse: +20 mV for 2 seconds; test pulse: −50 mV for 2 seconds) repeated at 10 second intervals, from a holding potential of −80 mV. Peak tail current was measured during the 2 second step to −50 mV. A steady state was maintained for at least 30 seconds before applying the test compound or the positive control. Peak tail current was monitored until a new steady state was achieved. Test compound concentrations were applied cumulatively in ascending order without washout between applications.
(§3) Data acquisition and analysis was performed using the suite of pCLAMP (Vre. 8.2) programs (Axon Instruments, Union City, Calif.). Steady state was defined by the limiting constant rate of change with time (linear time dependence). The steady state before and after application of the test or control compounds was used to calculate the percentage of current inhibited at each concentration. […] Nonlinear squares fits were solved with the Solver add-in for Excel 2000 (Microsoft, Redmond, Wash.).
(§4) Multiple compounds of the invention were tested for their effects on hERG currents. The compounds tested were: ARM036-Na, ARM047, ARM048, ARM050, ARM057, ARM064, ARM074, ARM075, ARM076, ARM077, ARM101, ARM102, ARM103, ARM104, ARM106, ARM107 and ARM26. […] Electrophysiological recordings were made using the PatchXpress 7000 A (Molecular Devices) automatic parallel patch clamp system. […] The duration of exposure to each test concentration was 5 minutes.

hERG = hERG (Homo sapiens, UniProt Q12809); assay: as above; details: human, HEK 293 cells stably transfected with hERG cDNA
Description: as §1, §2, §3, §4

[1] = Individual Data (% Inhibition), single cell

hERG, sequence (Q12809 whole entry): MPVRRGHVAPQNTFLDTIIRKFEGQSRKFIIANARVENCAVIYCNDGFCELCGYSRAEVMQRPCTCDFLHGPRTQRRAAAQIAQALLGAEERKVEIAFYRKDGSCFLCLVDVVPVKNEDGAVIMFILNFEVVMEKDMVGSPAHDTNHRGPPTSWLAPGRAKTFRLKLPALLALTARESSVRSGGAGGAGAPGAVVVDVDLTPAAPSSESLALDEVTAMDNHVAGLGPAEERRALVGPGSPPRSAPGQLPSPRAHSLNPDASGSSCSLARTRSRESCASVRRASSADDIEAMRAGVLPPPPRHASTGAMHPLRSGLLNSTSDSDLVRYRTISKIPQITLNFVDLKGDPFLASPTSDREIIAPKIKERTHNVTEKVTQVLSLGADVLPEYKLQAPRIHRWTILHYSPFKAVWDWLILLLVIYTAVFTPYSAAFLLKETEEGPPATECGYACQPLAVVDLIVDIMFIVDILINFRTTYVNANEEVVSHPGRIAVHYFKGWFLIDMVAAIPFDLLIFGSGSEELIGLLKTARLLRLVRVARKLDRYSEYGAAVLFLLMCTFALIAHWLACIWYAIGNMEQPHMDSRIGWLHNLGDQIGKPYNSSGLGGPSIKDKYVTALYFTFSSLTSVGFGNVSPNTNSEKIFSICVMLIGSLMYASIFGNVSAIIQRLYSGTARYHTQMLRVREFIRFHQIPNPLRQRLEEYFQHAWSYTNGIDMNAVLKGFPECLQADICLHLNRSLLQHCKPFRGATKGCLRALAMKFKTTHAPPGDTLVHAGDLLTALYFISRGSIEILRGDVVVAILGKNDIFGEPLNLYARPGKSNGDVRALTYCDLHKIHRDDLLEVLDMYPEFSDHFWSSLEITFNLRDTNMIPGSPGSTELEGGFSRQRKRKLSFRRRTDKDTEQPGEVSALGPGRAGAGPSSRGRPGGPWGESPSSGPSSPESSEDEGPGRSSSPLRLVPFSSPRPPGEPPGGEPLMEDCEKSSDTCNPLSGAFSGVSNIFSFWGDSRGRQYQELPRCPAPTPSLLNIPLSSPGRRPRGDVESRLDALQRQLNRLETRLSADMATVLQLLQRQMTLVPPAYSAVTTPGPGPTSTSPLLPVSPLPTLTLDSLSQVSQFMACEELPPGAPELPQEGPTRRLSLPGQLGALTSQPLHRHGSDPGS
hERG current, sequence (Q12809 whole entry): as above

SMILES: COc1ccc2c(c1)CN(C(=O)N1CCN(Cc3ccc4c(c3)OCO4)CC1)CCS2 [S47]
EC50 (PKA-phosphorylated RyR2): 20 nM
IC50 (hERG current): 2500 nM
Mean % hERG Inhibition (hERG current; 0.01 μM): 2.7%
Individual Data (% Inhibition) (hERG current; 0.01 μM, listed as ARM047, 0.01 µM): 1.7% and 3.7%
Mean % hERG Inhibition (hERG current; 0.1 μM): 9.7%
Individual Data (% Inhibition) (hERG current; 0.1 μM, listed as ARM047, 0.1 µM): 6.5% and 12.9%
Mean % hERG Inhibition (hERG current; 1 μM): 29.6%
Individual Data (% Inhibition) (hERG current; 1 μM, listed as ARM047, 1 µM): 30.8% and 20.4% and 37.5%
Mean % hERG Inhibition (hERG current; 10 μM): 78.0%
Individual Data (% Inhibition) (hERG current; 10 μM, listed as ARM047, 10 µM): 82.1% and 75.9%

SMILES: COc1ccc2c(c1)CN(C(=O)N1CCCCC1)CCS2 [S50]
EC50 (PKA-phosphorylated RyR2): 40 nM
Mean % hERG Inhibition (hERG current; 0.01 μM): 1.8%
Individual Data (% Inhibition) (hERG current; 0.01 μM, listed as ARM050, 0.01 µM): 1.1% and 2.4%
Mean % hERG Inhibition (hERG current; 0.1 μM): 3.7%
Individual Data (% Inhibition) (hERG current; 0.1 μM, listed as ARM050, 0.1 µM): 2.7% and 4.7%
Mean % hERG Inhibition (hERG current; 1 μM): 6.1%
Individual Data (% Inhibition) (hERG current; 1 μM, listed as ARM050, 1 µM): 7.1% and 5.1%
Mean % hERG Inhibition (hERG current; 10 μM): 24.2%
Individual Data (% Inhibition) (hERG current; 10 μM, listed as ARM050, 10 µM): 27.0% and 21.3%
hERG current inhibition at the highest concentration tested (hERG current): less than 50%

SMILES: COc1ccc2c(c1)CN(C(=O)NCc1ccc3c(c1)CCO3)CCS2 [S52]
EC50 (PKA-phosphorylated RyR2): 143 nM

SMILES: COc1ccc2c(c1)CN(C(=O)CCN1CCCCC1c1nnc(Cc3ccccc3)o1)CCS2 (stereo not shown) [S55]
EC50 (PKA-phosphorylated RyR2): 111 nM

SMILES: COC(=O)C(=O)N1CCSc2ccc(OC)cc2C1 [S57]
EC50 (PKA-phosphorylated RyR2): 73 nM
Mean % hERG Inhibition (hERG current; 0.01 μM): 0.2%
Individual Data (% Inhibition) (hERG current; 0.01 μM, listed as ARM057, 0.01 µM): 0.3% and 0.0%
Mean % hERG Inhibition (hERG current; 0.1 μM): 7.3%
Individual Data (% Inhibition) (hERG current; 0.1 μM, listed as ARM057, 0.1 µM): 4.1% and 10.4%
Mean % hERG Inhibition (hERG current; 1 μM): 2.7%
Individual Data (% Inhibition) (hERG current; 1 μM, listed as ARM057, 1 µM): 5.3% and 0.1%
Mean % hERG Inhibition (hERG current; 10 μM): 13.6%
Individual Data (% Inhibition) (hERG current; 10 μM, listed as ARM057, 10 µM): 18.3% and 8.8%
hERG current inhibition at the highest concentration tested (hERG current): less than 50%

SMILES: COc1ccc2c(c1)CN(C(=O)CCN1CCCCC1)CCS2 [S58]
EC50 (PKA-phosphorylated RyR2): 55 nM

SMILES: CCN(CC)C(=O)C(=O)N1CCSc2ccc(OC)cc2C1 [S59]
EC50 (PKA-phosphorylated RyR2): 102 nM

SMILES: COc1ccc2c(c1)CN(C(=O)CCN1CCC(Cc3ccc(N=[N+]=[N-])cc3N=[N+]=[N-])CC1)CCS2 [S63]
EC50 (PKA-phosphorylated RyR2): 52 nM

SMILES: COc1ccc2c(c1)CN(C(=O)NCCc1cnc[nH]1)CCS2 [S67]
EC50 (PKA-phosphorylated RyR2): 89 nM

SMILES: O=C(NO)N1CCSc2ccccc2C1 [S74]
EC50 (PKA-phosphorylated RyR2): 220 nM
Mean % hERG Inhibition (hERG current; 0.01 μM): 1.9%
Individual Data (% Inhibition) (hERG current; 0.01 μM, listed as ARM074, 0.01 µM): 0.8% and 3.0%
Mean % hERG Inhibition (hERG current; 0.1 μM): 4.8%
Individual Data (% Inhibition) (hERG current; 0.1 μM, listed as ARM074, 0.1 µM): 5.9% and 3.7%
Mean % hERG Inhibition (hERG current; 1 μM): 1.3%
Individual Data (% Inhibition) (hERG current; 1 μM, listed as ARM074, 1 µM): 0.2% and 2.4% and 5.6%
Mean % hERG Inhibition (hERG current; 10 μM): 9.5%
Individual Data (% Inhibition) (hERG current; 10 μM, listed as ARM074, 10 µM): 9.3% and 9.6% and 14.0%

SMILES: O=C(N1CCNCC1)N1CCSc2ccccc2C1 [S103]
inhibition at 5 min, 0.1 µM (hERG; [1]): 4.2%
inhibition at 5 min, 1 µM (hERG; [1]): 5%
inhibition at 5 min, 10 µM (hERG; Individual Data (% Inhibition), 10 μM, single cell): 28.4%
inhibition at 5 min, 0.01 µM (hERG; Mean % hERG Inhibition, 0.01 μM): 6.8%
inhibition at 5 min, 0.1 µM (hERG; Mean % hERG Inhibition): 3.3%
inhibition at 5 min, 1 µM (hERG; Mean % hERG Inhibition): 7.3%
inhibition at 5 min, 10 µM (hERG; Mean % hERG Inhibition, 10 μM): 29.2%
inhibition at 5 min, 10 µM (hERG; hERG current inhibition at the highest concentration tested, highest concentration tested (10 μM)): < 50%
Individual Data (% Inhibition) (hERG current; 0.01 μM, listed as ARM103, 0.01 µM): 12.1% and 1.5%
Individual Data (% Inhibition) (hERG current; 0.1 μM, listed as ARM103, 0.1 µM): 2.4%
Individual Data (% Inhibition) (hERG current; 1 μM, listed as ARM103, 1 µM): 9.6%
Individual Data (% Inhibition) (hERG current; 10 μM, listed as ARM103, 10 µM): 29.9%

Results, then the compound that gave them:

EC50 (PKA-phosphorylated RyR2): 81 nM
SMILES: COc1ccc2c(c1)CN(C(=O)NCc1ccccc1)CCS2 [S49]

EC50 (PKA-phosphorylated RyR2): 175 nM
SMILES: COc1ccc2c(c1)CN(C(=O)NO)CCS2 [S51]

EC50 (PKA-phosphorylated RyR2): 200 nM
SMILES: COc1ccc2c(c1)CN(C(=O)N1CCN(c3ccccc3)CC1)CCS2 [S53]

EC50 (PKA-phosphorylated RyR2): 77 nM
SMILES: COc1ccc2c(c1)CN(S(=O)(=O)Nc1cccnc1)CCS2 [S54]

EC50 (PKA-phosphorylated RyR2): 95 nM
SMILES: COc1ccc2c(c1)CN(C(=O)CCN1CCCC[C@H]1c1nnc(Cc3ccccc3)o1)CCS2 [S56]

EC50 (PKA-phosphorylated RyR2): 68 nM
SMILES: COc1ccc2c(c1)CN(C(=O)CCN1CCC(Cc3ccc(N)cc3)CC1)CCS2 [S60]

EC50 (PKA-phosphorylated RyR2): 95 nM
SMILES: COc1ccc2c(c1)CN(C(=O)CCN1CCC(Cc3ccc(N)cc3N)CC1)CCS2 [S61]

EC50 (PKA-phosphorylated RyR2): 45 nM
SMILES: COc1ccc2c(c1)CN(C(=O)CCN1CCC(Cc3ccc(N=[N+]=[N-])cc3)CC1)CCS2 [S62]

EC50 (PKA-phosphorylated RyR2): 110 nM
SMILES: COc1ccc2c(c1)CN(C(=O)NCCc1ccc(O)c(O)c1)CCS2 [S66]

EC50 (PKA-phosphorylated RyR2): ~100 nM
SMILES: c1ccc2c(c1)CNCCS2 [S68]
